The record followed here is US9096853B2, “Modified siRNA molecules incorporating 5-fluoro-2′-deoxyuridine residues to enhance cytotoxicity” (U.S. Department of Veterans Affairs, priority 2012, dated 2015).

d = 2'-deoxy (DNA); r = 2'-OH (RNA)

Series [1] relates to human colon cancer RKO cell line. As to the kind of experiment: Cell proliferation assay (WST-1) in RKO cells. The format is cell-based. The conditions noted are these: 6 hr exposure then 96 hr growth, mean ± S.D., at least 3 experiments. Background: Formazan colour is commonly taken as a measure of viable cells.
In series [2] the test system is TS6 siRNA target sequence (TS mRNA nt 1058-1077) targeted by the antisense strand. The series is described as follows: Luciferase assay, vector with TS6 target site for the antisense strand. The format is cell-based, human. The conditions noted are these: RKO cells, ssiRNA 0.1 nM, 24 hr. How it is done: FIG. 3 illustrates the effect of 3′-end modification on ssiRNA strand selection. RKO cells were transfected with luciferase vectors (including the TS6 target site for either the antisense (open bars) or sense strand (hatched bars)) in combination with ssiRNAs containing different 3′-end overhangs. After 24 hr, cells were harvested and luciferase activity was determined as described in the Materials and Methods section. Firefly/renilla luciferase activity from vector-alone transfection was normalized to 100%. All values represent the mean±S.D. from at least 4 separate experiments performed in duplicate;
FIGS. 4A-C illustrate the effect of 3′-end dU incorporation on ssiRNA strand selection. RKO cells were transfected with various TS6 ssiRNAs (1 nM) for 6 hr. After an additional 48 hr, cells were harvested for immunoblot (A) and qPCR (B) analysis. (C) Luciferase vectors (containing the siRNA target site for either the sense or antisense strand) were transfected into RKO cells in combination with different ssiRNAs. After 24 hr, cells were harvested and luciferase activity was determined as described in the Materials and Methods section. Luciferase activity from vector-alone transfection was normalized to 100%. All values represent the mean±S.D. from at least 4 separate experiments performed in duplicate;
A DNA oligonucleotide corresponding to the TS6 siRNA target sequence (TS mRNA nt 1058-1077: 5′-[…]-3′- SEQ ID NO: 23) was annealed to its complimentary antisense sequence and ligated into the pGL3-Promoter plasmid (Promega; Madison, WI) at restriction sites Hind III and Nco I. The luciferase mRNA expressed from this plasmid was targeted by the antisense strand of TS6 siRNA. A second plasmid was constructed with the TS mRNA sequence inserted in the opposite orientation so that it could be targeted by the sense or passenger strand of TS6 siRNA. […] After 24 hr, cells were washed with PBS, lysed in 1×PLG buffer, and firefly and renilla luciferase levels were determined by the Dual-Luciferase™ Reporter Assay system (Promega). […]

One may read the IC50 as the point on the concentration scale where inhibition reaches its midpoint. Low readings indicate greater potency in that assay, high ones weaker potency in that assay. In series [1], “TS6-dU/dA: unmodified TS-targeted ssiRNA, 5 dU on 3′-end of sense strand, 5 dA on 3′-end of antisense strand; SEQ ID NO: 3 and 4 (sense GGAUAUUGUCAGUCUUUAGGUUUUU; antisense CCUAAAGACUGACAAUAUCCAAAAA; sense: sugars from the 5' end r20 d5, backbone and T or U not given here; antisense: sugars from the 5' end r20 d5, backbone not given here)” returned an IC50 of 81.9 nM. The “antisense strand targeting, luciferase (in words)” value in series [2] is given as “maintained”.
